The values that follow come from article PMC10550954, “A high throughput screen for pharmacological inhibitors of the carbohydrate response element” (Scientific Data, 2023).

pIC50: −log10 of the molar value. Some results are limits rather than exact numbers.

Series [1] in a line: Cytotoxicity screening (CellTiterGlo cell viability) in INS-1E ChoRE-LUC cells. The format is cell-based. Conditions: rat, 24 h treatment. On the procedure: INS-1E ChoRE-LUC cells were plated in a white 384-well plate (5000 cells in 50 µL assay medium per well) and incubated for 24 h. 100 nL of DMSO stock concentrations of compound were transferred to each well using a Bravo instrument (Agilent) affixed with a pintool head (V&P Scientific). Cells were incubated for 24 h before 30 µL of CellTiterGlo Cell Viability Assay solution (diluted 1:6 in water, Promega) was added to each well and luminescence signal values were recorded with an Envision plate reader.
(§1) Reporter activity and cell viability data was normalized to the DMSO control wells in each plate. Ten or twelve dose-response points and three biological replicates were used to determine dose-response curves using the four-parameter inhibitor dose-response curve fitting function in Prism software (Graphpad). All graphed data are plotted as the mean and the s.e.m denoted with error bars.
On the technique in general: In ATP-based viability assays light output follows the ATP content of the culture.

For series [2], the system named is ChoRE-LUC (ChoRE driven transcription). Kind of series: ChoRE-LUC luciferase reporter assay in INS-1E ChoRE-LUC cells (BrightGlo, 24 h, 25 mM glucose). It is filed as cell-based, Rat. Particulars: 24 h treatment, 25 mM glucose media, 2% FBS. On the procedure:
For ReFRAME library screening, 10 nL of 2 mM DMSO stock concentrations of compound were prespotted into 5 µL of assay medium (RPMI with 2% FBS, 10 mM HEPES, 1 mM sodium pyruvate, 25 mM D-glucose (Sigma), and 1% penicillin/streptomcycin) in white 384-well plates (Grenier) using an Echo Acoustic Liquid Handler instrument (Labcyte) before the addition of INS-1E ChoRE-LUC cells (5000 cells in 45 µL assay medium per well). Cells were incubated for 24 h before 30 µL of BrightGlo Luciferase Assay solution (diluted 1:3 in water, Promega) was added to each well and luminescence signal values were recorded with an Envision plate reader (PerkinElmer). This protocol was used as the ReFRAME library was supplied from off-site and necessitated pre-spotting for efficient transfer of materials. For the screening of all other libraries, which was performed in-house, INS-1E ChoRE-LUC cells were plated in a white 384-well plate (5000 cells in 50 µL assay medium per well) and incubated for 24 h. 100 nL of DMSO stock concentrations of compound were transferred to each well using a Bravo instrument with a pintool head (Agilent). Cells were incubated for 24 h before 30 µL of BrightGlo Luciferase Assay solution was added to each well and luminescence signal values were recorded with an Envision plate reader.
as §1
To establish a reliable assay with a suitable dynamic range for high-throughput screening, we first optimized the composition of the DNA regulatory sequences within the ChoRE-LUC reporter. […] To determine whether this combination of regulatory elements was robust enough to test general ChoRE activity, we constructed six pGL4-based luciferase reporter plasmids with different numbers and/or combinations of ChoRE and FOXO sequences from the promoter of the human TXNIP gene (Fig. 3a). The wild-type (WT) sequence represents the intact minimal promoter of the TXNIP gene (GRCh38.p14, chr1:145,996,639–145,996,759). The six plasmids were transiently transfected into INS-1E cells using cationic lipid-based transfection reagents and the induction of luciferase after 24 h in 25 mM glucose containing media was compared (Fig. 3b). In addition, we tested various glucose concentrations in the assay media to determine the concentration that results in the highest stimulation. […] The WT ChoRE-LUC construct was then used to generate an INS-1E stable cell line (INS-1E ChoRE-LUC) for screening in 384-well plate format. For high-throughput screening, the treatment time, serum percentage in media, and cell count per well were optimized further. The final assay design consisted of 5,000 INS-1E ChoRE-LUC cells per well of a 384-well plate in 25 mM glucose media supplemented with 2% FBS and a compound treatment time of 24 h.
On the technique in general: Reporter assays use an easily measured gene product as a stand-in for the process of interest.

The subject of the next series is TXNIP expression. Further details: method as in PMID 28502980. Conditions: compared with the ChoRE-LUC IC50 of this paper; read-out: previously reported measurement (IC50); cited from earlier work.
Where [3] appears, read: Rattus norvegicus, INS-1E, 24 h.

As to `CCOC(=O)c1[nH]c2ccccc2c1NC(=O)/C=C/c1ccc(OC)c(OC)c1` [C175-0061], the IC50 at 24 h in series [1] was greater than 20 µM. For the same molecule, the negative-log IC50 (pIC50) in series [2] (setting [3]) was 5.95.

As for `CC[C@H](Nc1nc(NCc2cnc(C)cc2C)c2ncn(C(C)C)c2n1)[C@@H](C)O` [CYC065, reference compound], 0.85 µM corresponded to half-maximal inhibition in series [1] (IC50 at 24 h). Further, in series [2] (setting [3]), the pIC50 was 6.24.

The molecule `FC(F)(F)c1ccc(CN2CCC(F)(c3noc(-c4ccncc4)n3)C2)cc1` (stereo not shown) [SC41-0173] came in with an IC50 at 24 h in series [1] greater than 20 µM. Besides, the pIC50 in series [2] (setting [3]) is 5.08.

Regarding `Fc1cc(Br)ccc1CN1CCC(F)(c2noc(-c3ccncc3)n2)C1` (stereo not shown) [SC41-0178], in series [1], the IC50 at 24 h was greater than 20 µM. For the same molecule, the negative logarithm of the IC50 (pIC50) in series [2] (setting [3]) is 5.01.

For `Cc1cc(C)cc(C(=O)N2CC3(CC(CCOCc4cccc(F)c4)CO3)C2)c1` (stereo not shown) [SD60-0149], in series [1], the IC50 at 24 h was greater than 20 µM. For the same molecule, in series [2] (setting [3]), the pIC50 is 4.97.

In series [1], `O=C(c1ccc(F)c(Cl)c1)N1CC2(CC(CCOCc3cccc(F)c3)CO2)C1` (stereo not shown) [SD60-0151] displayed an IC50 at 24 h greater than 20 µM. The pIC50 in series [2] (setting [3]) was 5.02.

In series [1], `CCS(=O)(=O)Oc1ccc(CN(Cc2ccc(F)cc2)C(=O)/C=C/c2ccccc2)cc1` [V029-2992] came in with a concentration for half-maximal inhibition (IC50) at 24 h greater than 20 µM. In addition, the pIC50 was 5.54 in series [2] and 5.55 in series [2] (setting [3]).

As for `CC(=O)c1ccc(OCCn2cnc3c(N)ncnc32)cc1` [W2476, reference compound], the values for the negative logarithm of the IC50 (pIC50) (in series [2]; in the series on TXNIP expression) were 5.88 and 5.77, respectively.

On to `O=C(NCc1ccco1)C(=Cc1ccc(Cl)c(Cl)c1)C(=O)NCc1ccco1` [Y070-0096], for which the IC50 at 24 h in series [1] stood at 3.98 µM. Moreover, the pIC50 in series [2] (setting [3]) was 5.86.

What is called IC50 is the concentration needed to halve the response being measured. A high value points to weaker potency. By pIC50 is commonly meant the negative decadic logarithm of the IC50, by convention in mol/L.
